# Measurements as given in paper PMC10580319, “Quantitative Imaging of the Action of vCPP2319, an Antimicrobial Peptide from a Viral Scaffold, against Staphylococcus aureus Biofilms of a Clinical Isolate” (ACS Infectious Diseases, 2023).
# Where no end group is shown, it is not given here.
# Experiments:
# [1] = test system: S. aureus clinical isolate biofilms; assay: CLSM assay, SYTO 9 / WGA Alexa Fluor 633, polysaccharide density and mass, biofilm height; type: cell-based, Staphylococcus aureus; settings: fold variation relative to untreated biofilm, 0.13 mg/mL α-amylase, 25 μM vCPP2319, 4 h each
# Procedure: (EC 3.2.1.1) on the EPS matrix of S. aureus biofilms was evaluated using a CLSM-based assay. Briefly, the bacterial cells and the matrix components of S. aureus biofilms were imaged using SYTO 9 and Wheat Germ Agglutinin (WGA) Alexa Fluor 633 Conjugate (Invitrogen, Carlsbad, CA, USA). Preformed biofilms (see above) were washed once with PBS and stained with 3 μM SYTO 9 and 5 μg/mL WGA Alexa Fluor 633, for 15 min at room temperature.
# SYTO 9 was excited using the Argon laser (488 nm), and both TO-PRO-3 iodide and WGA Alexa Fluor 633 were excited with the Helium–Neon laser (633 nm), respectively. Image acquisition was performed on a Zeiss LSM 710 confocal laser point-scanning inverted microscope (Carl Zeiss MicroImaging, Oberkochen, Germany) equipped with a Plan-Apochromat DIC 63× oil immersion objective (1.40 numerical aperture). For each experiment, three different areas were imaged. All images were analyzed with the image processor Fiji.[54] TO-PRO-3 mean fluorescence intensity over the image was quantified from the xy plane of an inner layer (z = 2 μm, z being the distance from the surface of the glass slide) using Fiji’s incorporated plug-ins.[54] WGA mean fluorescence intensity over the image was quantified from the xy plane of an inner layer (z = 2 μm, z being the distance from the surface of the glass slide) and also from a z-projection of the sum of the z-stack slices, using Fiji’s incorporated plug-ins.[54] Biofilm height was determined from the xz orthogonal images using ZEN lite software (Carl Zeiss MicroImaging).
# The mean emission fluorescence intensity of WGA integrated over a plane xy at a specific depth, z, If,WGA,xy, is proportional to the mass of polysaccharides in that plane.
# [2] = Dynamic light scattering, self-assembly; type: physicochemical; settings: DLS, in PBS, preincubated 4 h at 25 °C, 50, 100, 200 and 500 μM, two independent experiments (Figure S2)
# Procedure: DLS experiments were carried out on a Zetasizer Nano ZS instrument from Malvern (Worcestershire, UK). vCPP2319, in PBS, was preincubated for 4 h, at 25 °C, at different concentrations (50, 100, 200, and 500 μM). The Z-average hydrodynamic diameter was measured using DLS in particle size analysis mode. For each experiment, a single measurement, corresponding to an autocorrelation curve averaged from a minimum of 20 runs, was performed. All measurements were performed at 25 °C. Data were obtained from two independent experiments.
# [3] = test system: S. aureus clinical isolate biofilms; assay: AFM imaging, surface roughness (Rrms); type: cell-based, Staphylococcus aureus; settings: 4 h; for cell surface roughness (Rrms): untreated 7.4 ± 1.9 nm; for biofilm surface roughness (Rrms): untreated 183 ± 23 nm
# Procedure: AFM was used to visualize the topography and morphology of S. aureus biofilms in the absence and presence of vCPP2319. Bacterial suspensions at 1 × 10^6 CFU/mL were incubated in a sterile slide with a removable 12 well silicone chamber (Ibidi) for 24 h at 37 °C. After a washing step with MHB, preformed biofilms were incubated in the absence or presence of vCPP2319 at 25 or 50 μM, for 4 h at 37 °C. Untreated and treated biofilms were then washed once with sterile Milli-Q water and incubated with 0.1% (v/v) glutaraldehyde (Sigma-Aldrich) for 4 h at room temperature. Afterward, each sample was washed twice with sterile Milli-Q water and allowed to dry in air for 1 h at room temperature. AFM images were acquired by using a JPK NanoWizard IV (Berlin, Germany) mounted on a Zeiss Axiovert 200 inverted microscope (Oberkochen, Germany). The AFM head was equipped with a 15 μm z-range linearized piezoelectric scanner and an infrared laser. Images were acquired in air and in intermittent contact mode using uncoated silicon ACL cantilevers from AppNano (Mountain View, CA, USA) with typical resonance frequencies of 200–400 kHz and spring constant of 13–77 N/m. Scan speeds ranged between 0.2 and 0.4 Hz and total scan areas of 5 × 5 μm were imaged. Height and error images were recorded. Height images reflect the topography of the sample. Error images are generated by the deflection of the cantilever as it bends while interacting with the sample and are adequate to improve resolution on the edges of objects imaged by AFM. For each experiment, three different areas were imaged. The surface roughness was defined as the root-mean-square roughness (Rrms)[52] and it was obtained from AFM height images using Gwyddion software version 2.56, based on the following equation after compensation for bacterial curvature: [drawing 3] 3 where N is the number of data points and zi is the height deviation of i-th point from a mean line.[53] For the biofilm surface roughness, Rrms values were calculated from the total imaged area of the biofilm, while for the cell surface roughness, Rrms values were calculated from a line of cells in three different regions of each image of untreated and peptide-treated biofilms. The final Rrms values are the averages of all measurements.
substance,measurement,setting,value
WRRRYRRWRRRRRWRRRPRR-NH2 [vCPP2319],ρi/ρcontrol (polysaccharides) eq 4,[1]; WGA fluorescence at z = 2 μm,0.7
same,mi/mcontrol (polysaccharides) eq 5,[1]; integrated WGA fluorescence over total biofilm,0.5
same,ρi/ρcontrol (polysaccharides) eq 6,[1]; integrated WGA fluorescence over zz divided by biofilm height,0.8
same,self-assembly,[2],self-assemble into nanoparticles
same,cell surface roughness (Rrms),[3]; 25 μM,13 ± 3 nm
same,biofilm surface roughness (Rrms),[3]; 25 μM,303 ± 93 nm
same,cell surface roughness (Rrms),[3]; 50 μM,20 ± 5 nm
same,biofilm surface roughness (Rrms),[3]; 50 μM,429 ± 142 nm
